# Assay results reported in patent EP4678638A1, “NEW E3 UBIQUITIN LIGASE LIGAND, PROTEIN DEGRADATION AGENT AND USE THEREOF” (priority 2023, dated 2024).
# Columns and labels:
# SW620 = experiment: CCK-8 proliferation, SW620; format: cell-based; conditions: Homo sapiens, SW-620; CCK-8; 96 hours; read-out: Inhibitory activity (IC50) on tumor cell proliferation, SW620
# How it was run: (§1)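 Cells seeded, then after 24 h treated with 10 concentrations (top 10 µM, 5-fold serial dilution) for a line-specific time at 37°C, 5% CO2. Viability read by CCK-8; IC50 fitted from growth-inhibition curves.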
# LS174T = experiment: CCK-8 proliferation, LS174T; format: cell-based; conditions: Homo sapiens, read-out: Inhibitory activity (IC50) on tumor cell proliferation, LS174T
# Procedure: (§2) IC50 values of the compounds of the present disclosure (including the compounds in Table 1, and compounds of examples) were measured using the Meilun Cell Counting Kit-8 kit from Dalian Meilun Biotech Co., Ltd. Assay details are as follows: tumor cells were seeded in a 96-well plate at a density listed in Table A2. After 24h, 100 µL of the inoculated cells were treated with 0.5µL of the compounds of the present disclosure (including the compounds in Tables 1 and 2, and compounds of examples) at 10 different successively decreasing concentrations (starting at the highest concentration of 10µM; 5-fold serial dilutions). After the cells were treated with the compounds of the present disclosure for a period of time, the cell viability detection reagent was added to the culture medium for cell viability assessment according to the instructions provided with the CCK-8 kit. […] The growth inhibition of the compounds of the present disclosure on cells was plotted by Prism Graphpad software, and the IC50 values of the compounds of the present disclosure were calculated therefrom. [drawing 1519] Table A2. Seeding protocol and treatment time for tumor cells
# CCRF-CEM = experiment: CCK-8 proliferation, CCRF-CEM; format: cell-based, Human; conditions: Homo sapiens, CCRF-CEM; CCK-8; 96 hours; read-out: Inhibitory activity (IC50) on tumor cell proliferation, CCRF-CEM
# How it was run: as §1
# LNcap = experiment: CCK-8 proliferation, LNcap; format: cell-based; conditions: Homo sapiens, LNCaP; CCK-8; 96 hours; read-out: Inhibitory activity (IC50) on tumor cell proliferation, Lncap
# How it was run: as §1
# TMD8 = experiment: CCK-8 proliferation, TMD8; format: cell-based; conditions: Homo sapiens, TMD8; CCK-8; 72 hours; read-out: Inhibitory activity (IC50) on tumor cell proliferation, TMD8
# Procedure: (§3) The tumor cells used herein were cultured in a cell culture medium listed in table A1 at 37°C in an incubator with 5% CO2. Prior to experimentation, all cell lines used were correctly identified by STR profiling, and tested negative for mycoplasma contamination using a mycoplasma detection kit through routine screenings. Table A1. Tumor cells and cell culture medium used in the present disclosure
# as §2, with “[drawing 1519] Table A2.” left out
# Jurkat = experiment: CCK-8 proliferation, Jurkat; format: cell-based, Human; conditions: Homo sapiens, Jurkat; CCK-8; 96 hours; read-out: Inhibitory activity (IC50) on tumor cell proliferation, Jurkat
# How it was run: as §1
# THP-1 = experiment: CCK-8 proliferation, THP-1; format: cell-based; conditions: Homo sapiens, 72 hours, read-out: Inhibitory activity (IC50) on tumor cell proliferation, THP-1
# Procedure: as §3
# as §2, with “[drawing 1519] Table A2.” left out
Structure (SMILES),IC50 (SW620),IC50 (CCRF-CEM),IC50 (LNcap),IC50 (Jurkat),IC50 (THP-1),IC50 (LS174T),IC50 (TMD8)
"CC1(C)CCC(c2ccc(Cl)cc2)=C(CN2CCN(c3ccc(C(=O)NS(=O)(=O)c4ccc(N[C@H](CCN5CCN(Cc6cccc(NC7CCC(=O)NC7=O)c6)CC5)CSc5ccccc5)c(S(=O)(=O)C(F)(F)F)c4)cc3)CC2)C1 (stereo partly drawn) [GT-04279, 4-(4-((4'-chloro-4,4-dimethyl-3,4,5,6-tetrahydro-[1,1'-biphenyl]-2-yl)methyl)piperazin-1-yl)-N-((4-(((2R)-4-(4-(3-((2,6-dioxopiperidin-3-yl)amino)benzyl)piperazin-1-yl)-1-(phenylthio)butan-2-yl)amino)-3-((trifluoromethyl)sulfonyl)phenyl)sulfonyl)benzamide]",50 to 100 nM,1 to 10 nM,50 to 100 nM,10 to 50 nM,10 to 50 nM,100 to 500 nM,10 to 50 nM
"CC1(C)CCC(c2ccc(Cl)cc2)=C(CN2CCN(c3ccc(C(=O)NS(=O)(=O)c4ccc(N[C@H](CCN5CCN(Cc6ccc(C7CCC(=O)NC7=O)c(F)c6)CC5)CSc5ccccc5)c(S(=O)(=O)C(F)(F)F)c4)cc3)CC2)C1 (stereo partly drawn) [GT-04152, 4-(4-((4'-chloro-4,4-dimethyl-3,4,5,6-tetrahydro-[1,1'-biphenyl]-2-yl)methyl)piperazin-1-yl)-N-((4-(((2R)-4-(4-(4-(2,6-dioxopiperidin-3-yl)-3-fluorobenzyl)piperazin-1-yl)-1-(phenylthio)butan-2-yl)amino)-3-((trifluoromethyl)sulfonyl)phenyl)sulfonyl)benzamide]",1 to 10 nM,1 to 10 nM,50 to 100 nM,1 to 10 nM,10 to 50 nM,50 to 100 nM,1 to 10 nM
"CC1(C)CCC(c2ccc(Cl)cc2)=C(CN2CCN(c3ccc(C(=O)NS(=O)(=O)c4ccc(N[C@H](CCN5CCOCC5)CSc5ccccc5)c(S(=O)(=O)C(F)(F)F)c4)cc3)CC2)C1 [ABT-263, Navitoclax, reference compound]",500 to 1000 nM,100 to 500 nM,1000 to 5000 nM,100 to 500 nM,100 to 500 nM,500 to 1000 nM,1000 to 5000 nM
"CC1(C)CCC(c2ccc(Cl)cc2)=C(CN2CCN(c3ccc(C(=O)NS(=O)(=O)c4ccc(N[C@H](CCN5CCN(Cc6cccc(N7CCC(=O)NC7=O)c6)CC5)CSc5ccccc5)c(S(=O)(=O)C(F)(F)F)c4)cc3)CC2)C1 [GT-04278, (R)-4-(4-((4'-chloro-4,4-dimethyl-3,4,5,6-tetrahydro-[1,1'-biphenyl]-2-yl)methyl)piperazin-1-yl)-N-((4-((4-(4-(3-(2,4-dioxotetrahydropyrimidin-1(2H)-yl)benzyl)piperazin-1-yl)-1-(phenylthio)butan-2-yl)amino)-3-((trifluoromethyl)sulfonyl)phenyl)sulfonyl)benzamide]",100 to 500 nM,1 to 10 nM,100 to 500 nM,10 to 50 nM,10 to 50 nM,500 to 1000 nM,10 to 50 nM

# The next lines start with results.
IC50 (SW620),IC50 (CCRF-CEM),IC50 (LNcap),IC50 (Jurkat),IC50 (THP-1),Structure (SMILES),IC50 (LS174T),IC50 (TMD8)
10 to 50 nM,< 1 nM,10 to 50 nM,1 to 10 nM,1 to 10 nM,"CC1(C)CCC(c2ccc(Cl)cc2)=C(CN2CCN(c3ccc(C(=O)NS(=O)(=O)c4ccc(N[C@H](CCN5CCN(Cc6ccc(C7CCC(=O)NC7=O)cc6)CC5)CSc5ccccc5)c(S(=O)(=O)C(F)(F)F)c4)cc3)CC2)C1 (stereo partly drawn) [GT-04151, 4-(4-((4'-chloro-4,4-dimethyl-3,4,5,6-tetrahydro-[1,1'-biphenyl]-2-yl)methyl)piperazin-1-yl)-N-((4-(((2R)-4-(4-(4-(2,6-dioxopiperidin-3-yl)benzyl)piperazin-1-yl)-1-(phenylthio)butan-2-yl)amino)-3-((trifluoromethyl)sulfonyl)phenyl)sulfonyl)benzamide]",50 to 100 nM,1 to 10 nM
> 10000 nM,1000 to 5000 nM,> 10000 nM,1000 to 5000 nM,500 to 1000 nM,"CC1(C)CCC(CN2CCN(c3ccc(C(=O)NS(=O)(=O)c4ccc(NCC5CCOCC5)c([N+](=O)[O-])c4)c(Oc4cnc5[nH]ccc5c4)c3)CC2)=C(c2ccc(Cl)cc2)C1 [ABT-199, Venetoclax, reference compound]",> 10000 nM,1000 to 5000 nM
